“And” between values parts separate entries of the source, which are not always exact repeats. Equal values may be shown once. “Also recorded” adds a separate entry of the source.
Columns and labels:
[1] = system: Tg2576 mouse model of AD; conditions: in vivo; cited from earlier work
[2] = solifenacin 10 mg versus placebo
Description: Safety and tolerability were evaluated based on subject reports, physician observations and examinations, and the performance of standard laboratory tests.

[3] = in vivo; cited from earlier work
[4] = Same study: peak plasma levels of rivastigmine given with placebo or active trospium; assay type: in vivo, human
Description: (§1) In this single-blind crossover study, healthy volunteers were hospitalized at a Phase I Center (Forenap, Rouffach, France) for the once daily oral administration of ascending doses of rivastigmine hydrogen tartrate (“rivastigmine”), (3 mg to a possible maximum of 24 mg in 3 mg increments as tolerated) together with placebo trospium and then with ascending amounts of rivastigmine (3 mg to a possible maximum of 24 mg as tolerated) together with active trospium. Placebo trospium or active trospium (at a fixed dose of 40 mg per day) were given orally once daily 3 hours before rivastigmine administration. Venous blood was collected for the measurement of plasma drug levels at their nominal peaks (approximately 1 hour after rivastigmine administration). Subjects were monitored clinically for 4 hours after drug administration or until all adverse events had subsided.

[5] = Single-blind crossover study in healthy volunteers: maximum tolerated dose and adverse events of rivastigmine given with placebo or active trospium; assay type: in vivo, human
Description: as §1

[6] = system: acetylcholinesterase / butyrylcholinesterase; conditions: cited from earlier work
[7] = open-label, 1.5 mg up to 6 mg twice daily, 26 weeks; no worsening of motor function; cited from earlier work
[8] = Birks 2009; Forette 1999; cited from earlier work
[9] = cited from earlier work
[10] = subject (c), dose above tolerated dose

COc1cc2c(cc1OC)C(=O)C(CC1CCN(Cc3ccccc3)CC1)C2 (racemic) [donepezil, (±)-2,3-dihydro-5,6-dimethoxy-2-[[1-(phenylmethyl)-4-piperidinyl]methyl]-1H-inden-1-one]
Adverse events at the tolerated donepezil dose given with placebo solifenacin (individual subjects, donepezil 5 mg (a, b, c, f), 15 mg (d), 30 mg (e)): no adverse events; also recorded: severe abdominal pain, weakness, moderate anorexia, sweating and dry mouth; also recorded: moderate weakness, mild dizziness and moderate hypersalivation
Adverse events at the tolerated donepezil dose given with 10 mg of solifenacin (individual subjects, donepezil 10 mg (a, f), 15 mg (b, d), 5 mg (c), 40 mg (e)): moderate nausea and moderate dizziness; also recorded: no adverse events; also recorded: moderate abdominal pain and severe headache
Subjects in whom solifenacin co-treatment enabled substantially higher daily doses of donepezil (solifenacin 10 mg versus placebo): 4 out of 6
Adverse events with 10 mg of donepezil and placebo solifenacin [10]: severe anorexia, nausea, retching, vomiting, weakness, headache, moderate diarrhea, and mild sweating, dizziness, somnolence, hypersalivation, muscular cramps
Adverse events with 10 mg of donepezil given with 10 mg of solifenacin [10]: severe nausea and retching
Increase of the donepezil MTD after donepezil/solifenacin combination (the other subjects (a), (b), (e), (f)): 33-300%
A-beta deposition in Tg2576 mice [1]: did not affect
Effect on A-beta and synaptic density parameters at lower doses [1]: not effective
Learning and memory functions in Tg2576 mice [1]: improved
Synaptic density in the molecular layer of the dentate gyrus [1]: significantly increased
Increase of peak donepezil levels with combined therapy [2]: ~2.6 fold

O=C(O[C@H]1C[C@H]2CC[C@@H](C1)[N+]21CCCC1)C(O)(c1ccccc1)c1ccccc1 [Trospium, 3-(2-hydroxy-2,2-diphenylacetoxy)-spiro[bicyclo[3.2.1]octane-8,1′-pyrrolidin]-1′-ium]
Average plasma half-life of the absorbed amount [3]: about 18 hours

CCN(C)C(=O)Oc1cccc([C@H](C)N(C)C)c1 [rivastigmine, (S)—N-Ethyl-N-methyl-3-[1-(dimethylamino)ethyl]-phenyl carbamate]
Average peak plasma rivastigmine with trospium relative to without trospium ([4]; 88 ng/ml versus 30.7 ng/ml): 2.9 times
Average peak plasma rivastigmine with trospium relative to literature value ([4]; 88 ng/ml versus about 12 ng/ml reported): ~7.3 times
Average peak plasma concentration of rivastigmine given without trospium ([4]; average of 2 subjects): 30.7 ng/mL
Peak plasma (maximum tolerated) concentration of rivastigmine given with placebo trospium ([4]; venous blood about 1 hour after 15 mg rivastigmine, individual subjects (b), (c)): 53 ng/mL and 8.3 ng/mL
Peak plasma (maximum tolerated) concentration of rivastigmine given with 40 mg of trospium ([4]; venous blood about 1 hour after rivastigmine 24 mg (a) or 18 mg (b, c), individual subjects): 39 ng/mL and 94 ng/mL and 131 ng/mL
Tolerated dose of rivastigmine given with placebo trospium ([5]; individual healthy volunteers (a)-(c), once daily oral ascending doses 3 to 24 mg, placebo trospium 3 hours before): 9 mg and 15 mg
Tolerated dose of rivastigmine given with 40 mg of trospium ([5]; individual healthy volunteers (a)-(c), once daily oral ascending doses 3 to 24 mg, trospium 40 mg oral 3 hours before): 24 mg and 18 mg
Adverse events at the tolerated rivastigmine dose given with placebo trospium ([5]; individual subjects, rivastigmine 9 mg (a), 15 mg (b, c)): moderate nausea and mild somnolence; also recorded: mild dry mouth
Adverse events at the tolerated rivastigmine dose given with 40 mg of trospium ([5]; individual subjects, rivastigmine 24 mg (a), 18 mg (b, c)): mild nausea as well as abdominal pain, headache and respiratory difficulty in addition to moderate anorexia; also recorded: mild dry mouth and moderate urinary difficulty
Tolerated rivastigmine dose with 40 mg trospium as multiple of the maximum recommended single oral dose (6 mg) ([5]; subject (a): 4, subjects (b) and (c): 3): 4 times and 3 times
Affinity / selectivity for acetylcholinesterase versus butyrylcholinesterase [6]: inhibits both enzymes with similar affinity
Cognitive functions in PD patients with dementia [7]: may improve the cognitive functions
Reported average maximum tolerated single oral dose of rivastigmine [8]: about 4.5 mg
Benefits on cognitive and global measures relevant to dementia ([9]; patients with dementias of the Alzheimer type): small, but statistically significant, benefits
Cognitive improvement in patients with Alzheimer's disease on doubling the dose ([9]; skin patches instead of immediate release tablets, without increasing side effects): significantly increased the amount of cognitive improvement
